This note sets out measurements from PubChem BioAssay AID550 (SRMLSC, 2006).

Activity calls are given as the source filed them.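 The calls were made as follows: active = clearly stronger inhibition of the target decarboxylase than of the coupling enzymes tested in parallel without it; inactive = the rest.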

Target in the first test: not listed separately
The test is described as follows: diphosphomevalonate decarboxylase inhibition dose curves – biochemical, PK/LDH-coupled NADH fluorescence, hexokinase coupling counter-screen, dose response (AID 550). The following applies: purified DPM-DC, measured here: coupling enzymes counter-screen (hexokinase). A general note: The purpose of a counterscreen is to sort out artefacts and off-target activity.
On to `CCN(CC)c1ccc(/C=N/n2c(=S)[nH]nc(C)c2=O)cc1`, for which the IC50 amounted to 39.5 µM. On the same count and under the same terms, under `Clc1cccc(-c2ccc(/C=N/n3cnnc3)o2)c1` stands 3720 µM. Consider `CCn1nc(-c2cccs2)nc2c(=O)n(C)c(=O)nc1-2`, for which the half-inhibitory concentration (IC50) turned out to be 5.99 µM. The same measure, in the same setting: the same measure for `COC(=O)Sc1nnc(-c2ccc(Br)cc2)o1`: 19.6 µM. On the same count and under the same terms, the same measure for `CN(C)[C@@H]1C(=O)C(C(N)=O)=C(O)[C@@]2(O)C(=O)C3=C(O)c4c(O)cccc4[C@@](C)(O)[C@H]3[C@H](O)[C@@H]12`: 125 µM. On the same count and under the same terms, the same measure for `CCn1nc(-c2ccccc2)nc2c(=O)n(C)c(=O)nc1-2`: 13.5 µM; for `CC(/C=N/n1cnnc1)=C\c1ccco1`: 3440 µM. As for `O=C(O)c1cccn2c(=O)c3ccccc3nc12`, the 50% inhibitory concentration (IC50) worked out at 54 µM. Still for that read-out and setting: under `O=c1c2ccccc2[se]n1-c1ccccc1` stands 38.4 µM; under `Nc1nc2c(s1)CCc1c-2cnn1-c1ccccc1`, 21 µM.

Another test addresses diphosphomevalonate decarboxylase (Streptococcus pneumoniae D39). The test is described as above. The settings on record: purified DPM-DC.
Take `CCN(CC)CCOC(=O)c1ccc(N=CC2=C(O)CC(C)(C)CC2=O)cc1`: the outcome was inactive.

As to `CN(C)[C@@H]1C(=O)C(C(N)=O)=C(O)[C@@]2(O)C(=O)C3=C(O)c4c(O)cccc4[C@@](C)(O)[C@H]3[C@H](O)[C@@H]12`, the IC50 result was “inactive”.

Turning to `Cc1nc2cc(NC(=O)NCc3ccco3)ccc2n1C`, the result was inactive. Still for that read-out and setting: the same measure for `COCCn1nnnc1CN(Cc1cccnc1)Cc1cc2cc(OC)ccc2[nH]c1=O`: “inactive”; for `COCCNC(=O)c1cnn2c(C(F)(F)F)cc(-c3ccc4c(c3)OCO4)nc12`: “inactive”.

Consider `Cc1nc2nc(C)c(CCC(=O)N3CCOCC3)c(C)n2n1`, for which the result was inactive. On the same count and under the same terms, under `OCCNc1ncnc2c1c(-c1ccccc1)c(-c1ccccc1)n2Cc1ccco1` stands “inactive”; under `COC(=O)c1cc2occc2n1CC(=O)Nc1ccc(OC)c(OC)c1OC`, “inactive”. Still for that read-out and setting: the same measure for `CCc1c(C)c(C#N)c2nc3ccccc3n2c1Nc1c(C)n(C)n(-c2ccccc2)c1=O`: “inactive”. Regarding `COc1ccc(C2C3=C(OC(C)=O)c4ccccc4C3=Nc3c2c(=O)n(C)c(=O)n3C)cc1` (stereo not given), the result was inactive. The same measure, in the same setting: under `CCCN(CC(=O)c1cc(C)n(C)c1C)S(=O)(=O)c1cccc(C(F)(F)F)c1` stands “inactive”; under `CCCCC(=O)Nc1ccc(C(N)=O)cc1`, “inactive”. In the case of `CCc1ccc(CCC(=O)Nc2ccc(C)c(C)c2)o1`, the outcome was inactive.

As for `CCCC(=O)Nc1ccc(N2CCN(C(=O)CCC)CC2)cc1`, the result was inactive. Still for that read-out and setting: the same measure for `O=C1NC(=O)C(CC(=O)N(c2ccccc2)C2(C(=O)NC3CCCC3)CCCCC2)N1` (stereo not given): “inactive”; for `CC(C)(O)P(C)(=O)c1ccccc1` (stereo not given): “inactive”; for `CCOC(=O)c1c(CC(C)C)csc1NC=O`: “inactive”. The same measure, in the same setting: under `CCOc1cc(NC(=O)c2ccco2)c(OCC)cc1NC(=O)CCc1ccc(OC)cc1` stands “inactive”; under `CCOC(=O)c1cc2c(=O)n(C)c3ccccc3c2s1`, “inactive”. Still for that read-out and setting: under `Cc1cnc(SCCc2ccncc2)nc1C` stands “inactive”; under `Cc1cc(C)c(S(=O)(=O)NCc2cn3c(C)csc3n2)cc1C`, “inactive”; under `CN(C)CCSc1nnc(-c2ccccc2)o1`, “inactive”. With `COc1ccc(C(c2nnnn2CC2CCCO2)N2CCN(c3ccccc3)CC2)cc1` (stereo not given), the result was inactive.

Consider `Cc1nc2oc3c(NCc4ccccn4)ncnc3c2c2c1COC(C)(C)C2`, for which the outcome was inactive. Still for that read-out and setting: under `CCCOC(=O)Cc1n[nH]c(=O)[nH]c1=O` stands “inactive”; under `Cc1cc(=O)[nH]c(/N=C(\N)Nc2cccc3ccccc23)n1`, “inactive”; under `Cc1cc(N2CCN(C3CCCC3)CC2)n2nc(C)c(-c3ccccc3)c2n1`, “inactive”.

On to `O=C(c1noc2c1CCCC2)N1CCCCC1`, for which the outcome was inactive. Still for that read-out and setting: the same measure for `COc1ccc(N2CCN(CCNS(=O)(=O)c3cccc4nsnc34)CC2)cc1`: “inactive”; for `CCOc1ncccc1C(=O)Nc1ccc2c(C)cc(=O)oc2c1`: “inactive”; for `O=C(CSc1ncnc2c1cnn2-c1ccccc1)Nc1ccc2c(c1)OCO2`: “inactive”. With `CC(O)COc1ccc(/C(=N/O)c2ccccc2)cc1` (stereo not given), the result was inactive. Same read-out and setting: the same measure for `O=P1(NC2CCCC2)COc2ccccc2OC1`: “inactive”. The same measure, in the same setting: under `CC(=NCc1ccco1)c1c(C)[nH]n(-c2nc3ccccc3s2)c1=O` stands “inactive”; under `c1ccc(N2CCN(c3cnccn3)CC2)nc1`, “inactive”.

As to `N#C/C(=C\C1CC=CCC1)c1nc2ccccc2[nH]1` (stereo not given), the outcome was inactive.

`S=c1[nH]nc(-c2ccccc2)n1C1C=CCCC1` (stereo not given): the result was inactive. Still for that read-out and setting: the same measure for `N#CC(C(=O)NC1CCCCC1)c1nc2ccccc2nc1N1CCCCC1` (stereo not given): “inactive”. In the case of `COc1cccc(/C=N\n2c(C)nnc2C)c1OC`, the result was inactive. Still for that read-out and setting: the same measure for `Cc1ccc(C2C3=C(CC(C)(C)CC3=O)N(CCN3CCOCC3)C3=C2C(=O)CC(C)(C)C3)cc1`: “inactive”; for `CN1CC(=O)NC1=NC(=O)C12CC3CC(CC(C3)C1)C2`: “inactive”. The same measure, in the same setting: under `O=C(c1ccccc1F)N(Cc1ccccc1)C1CCS(=O)(=O)C1` (stereo not given) stands “inactive”; under `COCCOC(=O)c1c(C)oc2ccc(NS(=O)(=O)c3ccc(F)cc3)cc12`, “inactive”; under `Cc1occc1C(=O)Nc1nnc(C(F)(F)F)s1`, “inactive”. Still for that read-out and setting: under `CCc1cc(/C(Cc2ccc3ccccc3n2)=N\O)c(O)cc1O` stands “inactive”; under `Cc1cc(=O)[nH]c2ccccc12`, “inactive”; under `COC(=O)c1cc(OC)c(OC)cc1NC(=O)c1oc2ccccc2c1C`, “inactive”.

Turning to `Cc1c(C(=O)NCC2CCCO2)sc2nc(-c3ccccc3)cn12` (stereo not given), the result was inactive.

Consider `COc1cc(C(=O)Nc2ccc3c(c2)OCO3)ccc1-n1cnnn1`, for which the outcome was inactive. Same read-out and setting: under `CCOC(=O)c1c(C)n(OCc2ccccc2)c2ccc3c(no[n+]3[O-])c12` stands “inactive”. With `Cc1cc(=O)cc(C)[nH]1`, the outcome was inactive. The same measure, in the same setting: the same measure for `CCc1nnc(NC(=O)CSc2nnc(COc3ccccc3)n2Cc2ccccc2)s1`: “inactive”; for `COc1cccc(C(=O)OCn2nnc3ccccc3c2=O)c1`: “inactive”.

Regarding `CN(C)C(=O)Nc1cnc2ccccc2c1`, the outcome was inactive. Take `O=C(CSc1nnc2ccccn12)Nc1ccccc1C(=O)NC1CC1`: the outcome was inactive. Same read-out and setting: under `CC(=O)Nc1cccc(NC(=O)CSc2nnnn2Cc2ccccc2)c1` stands “inactive”; under `CC(=O)c1cccc(NC(=O)Nc2cccnc2)c1`, “inactive”. For `Cc1ccc(C2C3CN(C(C)C)CC=C3C(C#N)=C(N)C2(C#N)C#N)cc1` (stereo not given), the IC50 is 39.6 µM. In the case of `CCC(=O)Nc1cccc(NC(=O)CSc2nnnn2Cc2ccccc2)c1`, the result was inactive.

Consider `CCOc1ccc(N(CC(=O)NC2CCCC(C)C2C)S(=O)(=O)c2c(C)noc2C)cc1` (stereo not given), for which the outcome was inactive. Regarding `CC(C)(CO)NC(=O)C(c1ccccc1)c1ccccc1`, the result was inactive. Take `O=C(NCc1cccnc1)c1ccc2c(=O)n(CCCN3CCCC3=O)c(=S)[nH]c2c1`: the outcome was inactive. On the same count and under the same terms, the same measure for `C/C=C/Cn1c(N(C)Cc2ccccc2)nc2c1c(=O)[nH]c(=O)n2C`: “inactive”. Same read-out and setting: under `CCOc1ccccc1OCC(=O)Nc1ccc(N2CCCCC2)cc1` stands “inactive”; under `COc1ccc(C(O)Cn2c(=N)n(CCCN(C)C)c3ccccc32)cc1` (stereo not given), “inactive”. The same measure, in the same setting: under `O=S(=O)(Nc1cccc2ncccc12)c1cccs1` stands “inactive”; under `Cc1cccc(OCC(O)Cn2c(-n3nc(C)cc3C)nc3c2c(=O)[nH]c(=O)n3C)c1` (stereo not given), “inactive”; under `Cc1cccc2cc(CN(Cc3ccco3)S(=O)(=O)c3ccc4c(c3)OCCO4)c(=O)[nH]c12`, “inactive”.

Take `Cc1cc(O)c(C=Nc2cccc(Cl)c2)c(=O)o1`: the result was inactive. Same read-out and setting: the same measure for `O=c1[nH]c(-c2ccncc2)nc2ccccc12`: “inactive”.

The IC50 is the concentration that gives 50% inhibition.
